{"source": "patent US20250044299A1", "about": "“PROTEIN STABILITY ASSAY” (Medicines Discovery Catapult Limited, priority 2021, published 2025)", "type_in_all_cases": "binding", "key": {"p38α MAPK": {"molecular_target": "p38α MAPK (Homo sapiens, UniProt Q16539)", "sequence (Q16539 whole entry)": "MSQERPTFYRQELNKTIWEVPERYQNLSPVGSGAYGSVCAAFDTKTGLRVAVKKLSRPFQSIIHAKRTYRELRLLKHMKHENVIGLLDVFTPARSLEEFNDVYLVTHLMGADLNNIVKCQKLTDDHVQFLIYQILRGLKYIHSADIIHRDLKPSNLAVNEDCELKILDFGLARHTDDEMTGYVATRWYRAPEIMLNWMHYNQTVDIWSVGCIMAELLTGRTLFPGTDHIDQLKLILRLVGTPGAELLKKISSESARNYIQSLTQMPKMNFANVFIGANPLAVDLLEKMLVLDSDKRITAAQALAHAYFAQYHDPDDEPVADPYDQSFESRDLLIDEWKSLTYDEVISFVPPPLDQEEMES", "test": "Protein stability assay screening study, AlphaLISA endpoint, HEK293T cell lysate, compound concentration response at fixed AEA or EA (Example 2)", "set-up": "endogenous in cells; host or cells: HEK293T", "settings": "fixed 22% AEA or 20% EA, 10-point concentration response", "protocol": "The fixed denaturant concentration to be added was made up as a 5/4 stock so that when 8 μl of denaturant was added to 2 μl lysate the final volume was 10 μl and the denaturant concentrations were as listed above. After compound/lysate incubation was complete 8 μl of the prepared AEA or EA stock was added to each well of separate plates, the contents of the plates were settled by a short pulse spin, sealed, and then incubated with shaking at 800 rpm for 120 minutes on a heated plate shaker set to 21° C. For signal detection an antibody detection mix was made up no more than 20 minutes prior to use. […] 10 μl of antibody bead mix was added to each test well, the contents of the plates were settled by a short pulse spin, sealed, shaken gently for 1-2 minutes, wrapped in foil, and then incubated for 16-18 hours in the dark. After incubation the plates were read on a fluorescence detecting plate reader (Excitation 680 nm, Emission 615 nm) to determine well signals. Concentration response curves were produced from normalised data using the Genedata Screener data analysis package, and EC50 values generated to allow data comparison between the two denaturant types."}, "CDK9": {"molecular_target": "T1, CDK9 (Homo sapiens, UniProt P50750)", "T1 construct": "Lysate from U-2 OS cells grown in continuous culture; endogenous in cells; b320 says HEK293T", "T1 sequence (P50750 whole entry)": "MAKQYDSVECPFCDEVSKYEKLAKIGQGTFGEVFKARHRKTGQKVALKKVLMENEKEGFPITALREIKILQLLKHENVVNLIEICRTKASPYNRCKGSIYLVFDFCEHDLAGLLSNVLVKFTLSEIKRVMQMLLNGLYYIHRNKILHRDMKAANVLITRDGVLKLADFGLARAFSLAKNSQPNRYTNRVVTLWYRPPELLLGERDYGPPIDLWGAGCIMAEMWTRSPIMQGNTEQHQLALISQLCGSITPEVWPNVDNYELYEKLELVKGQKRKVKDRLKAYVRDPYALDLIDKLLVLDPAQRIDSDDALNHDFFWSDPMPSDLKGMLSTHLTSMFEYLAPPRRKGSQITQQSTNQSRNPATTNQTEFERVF", "T1 sequence (O60563 whole entry partner)": "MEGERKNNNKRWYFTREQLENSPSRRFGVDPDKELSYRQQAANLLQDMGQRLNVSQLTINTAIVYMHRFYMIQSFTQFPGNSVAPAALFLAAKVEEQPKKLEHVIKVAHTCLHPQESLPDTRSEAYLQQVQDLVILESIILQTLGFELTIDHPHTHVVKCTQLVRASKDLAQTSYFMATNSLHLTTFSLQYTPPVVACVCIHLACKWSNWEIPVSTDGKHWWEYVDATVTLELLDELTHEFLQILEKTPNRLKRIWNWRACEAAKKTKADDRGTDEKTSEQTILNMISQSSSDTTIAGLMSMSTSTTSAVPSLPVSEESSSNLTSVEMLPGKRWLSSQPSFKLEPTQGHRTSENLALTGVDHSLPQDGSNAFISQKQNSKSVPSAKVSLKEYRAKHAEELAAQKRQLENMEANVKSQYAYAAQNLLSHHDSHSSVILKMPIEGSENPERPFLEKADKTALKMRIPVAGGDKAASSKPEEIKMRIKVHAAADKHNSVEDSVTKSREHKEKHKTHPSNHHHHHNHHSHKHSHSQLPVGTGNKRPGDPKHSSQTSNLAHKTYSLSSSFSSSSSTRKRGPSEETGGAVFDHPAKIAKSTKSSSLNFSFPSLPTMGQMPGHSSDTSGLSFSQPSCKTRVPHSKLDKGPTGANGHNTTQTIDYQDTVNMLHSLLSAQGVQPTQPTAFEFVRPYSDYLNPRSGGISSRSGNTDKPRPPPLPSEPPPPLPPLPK", "test": "Protein stability assay with Western blot endpoint, cell lysate, AEA titration (Example 5)", "settings": "100 μM compound as printed, vs DMSO", "protocol": "(§1) Lysate from U-2 OS cells grown in continuous culture at 5% CO2/37° C. in full growth media (RPMI (Gibco 11835-063), 10% FCS (Gibco F7524) 1% Glutamax (Gibco 35050-061)) was produced by growing cells in T175 flasks to 85% confluence, removing from the surface using 3 ml Tryple Select (Gibco 12563011), centrifuging (1000 rpm for 4 minutes) to pellet, washing cell pellet two times in DPBS (Gibco 14190-094), resuspending 1 ml of DPBS (Gibco 14190-094) containing 1× HALT Protease and Phosphatase inhibitor cocktail (Thermo Scientific 78440) per flask and lysing by three cycles of a liquid nitrogen freeze followed by thawing at room temperature. […]\nLysate/compound mixes were incubated for 30-60 minutes at room temperature. While incubating, fresh 100% AEA (Acetone (11443733) Ethanol (10437341) and Acetic Acid (10365020), all from Fisher Scientific in a ratio of 50:50:0.1) denaturant was made in a glass bottle ready for use. An aliquot of 100% AEA was diluted to 50% in DPBS (Gibco 14190-094) ready to produce either titration curves or a fixed concentration of denaturant. […]"}, "AKT1": {"molecular_target": "T2, AKT1 (Homo sapiens, UniProt P31749)", "T2 construct": "endogenous in cells; host or cells: HEK293T", "T2 sequence (P31749 whole entry)": "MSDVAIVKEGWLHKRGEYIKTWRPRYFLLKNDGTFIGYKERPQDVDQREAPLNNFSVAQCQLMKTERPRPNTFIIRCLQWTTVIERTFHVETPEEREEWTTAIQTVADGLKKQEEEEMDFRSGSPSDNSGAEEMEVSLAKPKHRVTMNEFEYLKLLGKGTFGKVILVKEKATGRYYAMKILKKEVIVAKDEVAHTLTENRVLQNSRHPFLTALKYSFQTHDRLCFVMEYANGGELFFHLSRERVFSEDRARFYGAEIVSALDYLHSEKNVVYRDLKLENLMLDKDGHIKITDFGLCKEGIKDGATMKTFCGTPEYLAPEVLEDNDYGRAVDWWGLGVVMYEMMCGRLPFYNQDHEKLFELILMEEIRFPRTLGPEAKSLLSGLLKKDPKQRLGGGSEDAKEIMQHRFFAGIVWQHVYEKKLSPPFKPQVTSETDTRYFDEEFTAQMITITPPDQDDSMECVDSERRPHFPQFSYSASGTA", "test": "Protein stability assay, AlphaLISA endpoint, HEK293T cell lysate, EA (Example 8)", "protocol": "as §1, with “HEK293T” for “U-2 OS”, “in” for “in T175”, “resuspending in” for “resuspending”\nTo run the protein stability assay, an aliquot of HEK293T cell lysate at 4 μg/μl was thawed at room temperature and 2 μl added to each well of a 384-well White ProxiPlate (Perkin Elmer 6008280) containing […] MK-2206 (LKT Laboratories M400220) or an equivalent volume of DMSO dosed using the Labcyte ECHO. […] While incubating, fresh 100% EA (Ethanol (10437341) and Acetic Acid (10365020), all from Fisher Scientific in a ratio of 100:0.1) denaturant was made in a glass bottle ready for use. An aliquot of 100% EA was diluted to 50% in DPBS (Gibco 14190-094) ready to produce titration curves of denaturant. […]"}}}
{"smiles": "Cc1c(F)cc(C(=O)NC2CC2)cc1-c1c(F)cn2c(C(C)(C)C)nnc2c1F", "note": "[AL 8697]", "values": [{"measurement": "stabilisation of protein, compound concentration response curves", "setting": "p38α MAPK", "result": "stabilisation of protein in a dose dependent manner"}]}
{"smiles": "Cc1ncc(-c2ccnc(Nc3ccc(S(C)(=O)=O)cc3)n2)n1C(C)C", "note": "[AZD5438]", "values": [{"measurement": "stabilisation of CDK9 protein against chemical denaturation", "setting": "CDK9", "result": "increased stabilisation of CDK9 protein"}]}
{"smiles": "NC1(c2ccc(-c3nc4ccn5c(=O)[nH]nc5c4cc3-c3ccccc3)cc2)CCC1", "note": "[MK-2206]", "values": [{"measurement": "stabilisation of AKT1 protein (shift in protein denaturation curves)", "setting": "AKT1; 10 μM compound, EA titration, vs DMSO only", "result": "stabilisation of AKT1 protein"}, {"measurement": "AKT1 protein stabilisation, concentration response curve", "setting": "AKT1; fixed 18% EA", "result": "AKT1 protein stabilisation by MK-2206 in a dose dependent manner"}]}
{"smiles": "O=c1ncn2nc(Sc3ccc(F)cc3F)ccc2c1-c1c(Cl)cccc1Cl", "note": "[VX 745]", "values": [{"measurement": "stabilisation of protein, compound concentration response curves", "setting": "p38α MAPK", "result": "stabilisation of protein in a dose dependent manner"}]}
